Measurements published in patent US6737383B1, “Herbicidal oxadiazolidines” (priority 1999, dated 2004).

Assays:
duck salad = assay: Test B flood test duck salad; format: in vivo, Heteranthera limosa
Procedure, shortened: (§1)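 Plants were grown to the 2-leaf stage before treatment with test chemical, then held in a greenhouse for twelve to sixteen days. Injury was visually rated against untreated controls on a 0–10 scale, where 0 is no effect and 10 is complete control.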

sugar beet = assay: Test B pre/postemergence sugar beet; format: in vivo, Beta vulgaris; conditions: for Sugarbeets plant response rating: scale of 0 to 10 where 0 is no effect and 10 is complete control
Procedure, shortened: (§2)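 Test chemicals in a non-phytotoxic solvent mixture with surfactant were sprayed preemergence onto planted seeds and postemergence onto plants 2 to 18 cm tall (1- to 4-leaf stage). After twelve to sixteen days in a greenhouse, injury was visually rated against untreated controls from 0 (no effect) to 10 (complete control).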

smallflower flatsedge = assay: Test B flood test smallflower flatsedge; format: in vivo, Cyperus difformis
Procedure, shortened: as §1

bamyardgrass = assay: Test B flood test barnyardgrass; format: in vivo, Echinochloa crus-galli
Procedure, shortened: as §1

rape = assay: Test B pre/postemergence rape; format: in vivo, Brassica napus; conditions: for Rape plant response rating: scale of 0 to 10 where 0 is no effect and 10 is complete control
Procedure, shortened: as §2

rice = assay: Test B flood test rice; format: in vivo, Oryza sativa
Procedure, shortened: as §1

purple nutsedge = assay: Test B pre/postemergence purple nutsedge; format: in vivo, Cyperus rotundus; conditions: for Nutsedge plant response rating: scale of 0 to 10 where 0 is no effect and 10 is complete control
Procedure, shortened: as §2

velvetleaf = assay: Test B pre/postemergence velvetleaf; format: in vivo, Abutilon theophrasti; conditions: for Velvetleaf plant response rating: scale of 0 to 10 where 0 is no effect and 10 is complete control
Procedure, shortened: as §2

wheat = assay: Test B pre/postemergence wheat; format: in vivo, Triticum aestivum; conditions: for Wheat plant response rating: scale of 0 to 10 where 0 is no effect and 10 is complete control
Procedure, shortened: as §2

morningglory = assay: Test B pre/postemergence morningglory; format: in vivo, Ipomoea hederacea; conditions: for Morningglory plant response rating: scale of 0 to 10 where 0 is no effect and 10 is complete control
Procedure, shortened: as §2

cocklebur = assay: Test B pre/postemergence cocklebur; format: in vivo, Xanthium strumarium; conditions: for Cocklebur plant response rating: scale of 0 to 10 where 0 is no effect and 10 is complete control
Procedure, shortened: as §2

blackgrass = assay: Test B pre/postemergence blackgrass; format: in vivo, Alopecurus myosuroides
Procedure, shortened: as §2

wild oat = assay: Test B pre/postemergence wild oat; format: in vivo, Avena fatua; conditions: for Wild oats plant response rating: scale of 0 to 10 where 0 is no effect and 10 is complete control
Procedure, shortened: as §2

soybean = assay: Test B pre/postemergence soybean; format: in vivo, Glycine max; conditions: for Soybean plant response rating: scale of 0 to 10 where 0 is no effect and 10 is complete control
Procedure, shortened: as §2

giant foxtail = assay: Test B pre/postemergence giant foxtail; format: in vivo, Setaria faberii; conditions: for Giant foxtail plant response rating: scale of 0 to 10 where 0 is no effect and 10 is complete control
Procedure, shortened: as §2

pigweed = assay: Test B pre/postemergence pigweed; format: in vivo, Amaranthus retroflexus; conditions: for Redroot pigweed plant response rating: scale of 0 to 10 where 0 is no effect and 10 is complete control
Procedure, shortened: as §2

[1] = Postemergence (flood test), Rate 125 g/ha, scale 0 to 10, 0 is no effect, 10 is complete control
[2] = Rate 62 g/ha, Postemergence (flood test species), scale of 0 to 10 where 0 is no effect and 10 is complete control
[3] = Rate 62 g/ha, flood test species, Pre-emergence, visual evaluation after twelve to sixteen days
[4] = Rate 125 g/ha, Pre-emergence, flood test species, scale 0 to 10 where 0 is no effect and 10 is complete control
[5] = Rate 250 g/ha, Pre-emergence, flood-test species, scale 0 to 10, 0 is no effect, 10 is complete control
[6] = Rate 500 g/ha, listed under Postemergence (flood test species), scale 0 to 10, 0 no effect, 10 complete control
[7] = Rate 500 g/ha, Pre-emergence, flood test species, scale 0 to 10 (0 no effect, 10 complete control)
[8] = Postemergence, Rate 125 g/ha, scale 0 to 10, 0 is no effect, 10 is complete control
[9] = Preemergence, Rate 62 g/ha, scale 0 to 10 (0 no effect, 10 complete control)
[10] = Rate 500 g/ha, Postemergence, scale 0 to 10, 0 no effect, 10 complete control

CC(C)N(C(=O)n1oc(=O)n(C2CCC2)c1=O)c1ccc(F)cc1F [Compound 351]
Plant response rating, Ducksalad (duck salad; [1]): 0
Ducksalad plant response rating (duck salad; [2]): 0
Plant response rating, Ducksalad (0 to 10 scale, 0 is no effect, 10 is complete control) (duck salad; [3]): 0
Ducksalad plant response rating (duck salad; [4]): 0
Ducksalad plant response rating (duck salad; [5]): 0
Plant response rating, Ducksalad (duck salad; [6]): 4
Ducksalad plant response rating (duck salad; [7]): 0
Plant response rating, Sugarbeets (sugar beet; [8]): 0
Plant response rating, Sugarbeets (sugar beet; [9]): 2
Sugarbeets plant response rating (0 to 10 scale) (sugar beet; Preemergence, Rate 125 g/ha): 2
Sugarbeets plant response rating (sugar beet; Preemergence, Rate 250 g/ha): 6
Sugarbeets plant response rating (sugar beet; Preemergence, Rate 500 g/ha): 8
Sugarbeets plant response rating (sugar beet; Rate 62 g/ha, Postemergence): 0
Plant response rating, Sugarbeets (sugar beet; [10]): 2
Plant response rating, S. Flatsedge (smallflower flatsedge; [1]): 6
S. Flatsedge plant response rating (smallflower flatsedge; [2]): 0
Plant response rating, S. Flatsedge (0 to 10 scale, 0 is no effect, 10 is complete control) (smallflower flatsedge; [3]): 0
S. Flatsedge plant response rating (smallflower flatsedge; [4]): 0
S. Flatsedge plant response rating (smallflower flatsedge; [5]): 0
Plant response rating, S. Flatsedge (smallflower flatsedge; [6]): 8
S. Flatsedge plant response rating (smallflower flatsedge; [7]): 0
Plant response rating, Barnyardgrass (bamyardgrass; [1]): 3
Barnyardgrass plant response rating (bamyardgrass; [2]): 0
Plant response rating, Barnyardgrass (0 to 10 scale, 0 is no effect, 10 is complete control) (bamyardgrass; [3]): 0
Barnyardgrass plant response rating (bamyardgrass; [4]): 0
Plant response rating, Barnyardgrass (bamyardgrass; Rate 250 g/ha, Postemergence (flood test species), scale of 0 to 10 where 0 is no effect and 10 is complete control): 3
Barnyardgrass plant response rating (bamyardgrass; [5]): 0
Plant response rating, Barnyardgrass (bamyardgrass; [6]): 5
Barnyardgrass plant response rating (bamyardgrass; [7]): 0
Plant response rating, Rape (rape; [8]): 0
Plant response rating, Rape (rape; [9]): 0
Rape plant response rating (0 to 10 scale) (rape; Preemergence, Rate 125 g/ha): 3
Rape plant response rating (rape; Preemergence, Rate 250 g/ha): 6
Rape plant response rating (rape; Preemergence, Rate 500 g/ha): 9
Rape plant response rating (rape; Rate 62 g/ha, Postemergence): 0
Plant response rating, Rape (rape; [10]): 5
Plant response rating, Rice (rice; [1]): 0
Rice plant response rating (rice; [2]): 0
Plant response rating, Rice (0 to 10 scale, 0 is no effect, 10 is complete control) (rice; [3]): 0
Rice plant response rating (rice; [4]): 0
Rice plant response rating (rice; [5]): 0
Plant response rating, Rice (rice; [6]): 0
Rice plant response rating (rice; [7]): 0
Plant response rating, Nutsedge (purple nutsedge; [8]): 0
Plant response rating, Nutsedge (purple nutsedge; [9]): 0
Nutsedge plant response rating (0 to 10 scale) (purple nutsedge; Preemergence, Rate 125 g/ha): 0
Nutsedge plant response rating (purple nutsedge; Preemergence, Rate 250 g/ha): 0
Nutsedge plant response rating (purple nutsedge; Preemergence, Rate 500 g/ha): 9
Nutsedge plant response rating (purple nutsedge; Rate 62 g/ha, Postemergence): 0
Plant response rating, Nutsedge (purple nutsedge; [10]): 0
Plant response rating, Velvetleaf (velvetleaf; [8]): 0
Plant response rating, Velvetleaf (velvetleaf; [9]): 0
Velvetleaf plant response rating (0 to 10 scale) (velvetleaf; Preemergence, Rate 125 g/ha): 3
Velvetleaf plant response rating (velvetleaf; Preemergence, Rate 250 g/ha): 4
Velvetleaf plant response rating (velvetleaf; Preemergence, Rate 500 g/ha): 5
Velvetleaf plant response rating (velvetleaf; Rate 62 g/ha, Postemergence): 0
Plant response rating, Velvetleaf (velvetleaf; [10]): 6
Plant response rating, Wheat (wheat; [8]): 0
Plant response rating, Wheat (wheat; [9]): 0
Wheat plant response rating (0 to 10 scale) (wheat; Preemergence, Rate 125 g/ha): 0
Wheat plant response rating (wheat; Preemergence, Rate 250 g/ha): 0
Wheat plant response rating (wheat; Preemergence, Rate 500 g/ha): 2
Wheat plant response rating (wheat; Rate 62 g/ha, Postemergence): 0
Plant response rating, Wheat (wheat; [10]): 2
Plant response rating, Morningglory (morningglory; [8]): 4
Plant response rating, Morningglory (morningglory; [9]): 0
Morningglory plant response rating (0 to 10 scale) (morningglory; Preemergence, Rate 125 g/ha): 0
Morningglory plant response rating (morningglory; Preemergence, Rate 250 g/ha): 0
Morningglory plant response rating (morningglory; Preemergence, Rate 500 g/ha): 0
Morningglory plant response rating (morningglory; Rate 62 g/ha, Postemergence): 3
Plant response rating, Morningglory (morningglory; [10]): 6
Plant response rating, Cocklebur (cocklebur; [8]): 0
Plant response rating, Cocklebur (cocklebur; [9]): 0
Cocklebur plant response rating (0 to 10 scale) (cocklebur; Preemergence, Rate 125 g/ha): 0
Cocklebur plant response rating (cocklebur; Preemergence, Rate 250 g/ha): 0
Cocklebur plant response rating (cocklebur; Preemergence, Rate 500 g/ha): 0
Cocklebur plant response rating (cocklebur; Rate 62 g/ha, Postemergence): 0
Plant response rating, Cocklebur (cocklebur; [10]): 2
Plant response rating, Blackgrass (blackgrass; [8]): 2
Plant response rating, Blackgrass (blackgrass; [9]): 0
Blackgrass plant response rating (0 to 10 scale) (blackgrass; Preemergence, Rate 125 g/ha): 2
Blackgrass plant response rating (blackgrass; Preemergence, Rate 250 g/ha, scale of 0 to 10 where 0 is no effect and 10 is complete control): 3
Blackgrass plant response rating (blackgrass; Preemergence, Rate 500 g/ha, scale of 0 to 10 where 0 is no effect and 10 is complete control): 8
Blackgrass plant response rating (blackgrass; Rate 62 g/ha, Postemergence, scale of 0 to 10 where 0 is no effect and 10 is complete control): 0
Plant response rating, Blackgrass (blackgrass; Rate 250 g/ha, Postemergence, scale of 0 to 10 where 0 is no effect and 10 is complete control): 4
Plant response rating, Blackgrass (blackgrass; [10]): 4
Plant response rating, Wild oats (wild oat; [8]): 0
Plant response rating, Wild oats (wild oat; [9]): 0
Wild oats plant response rating (0 to 10 scale) (wild oat; Preemergence, Rate 125 g/ha): 0
Wild oats plant response rating (wild oat; Preemergence, Rate 250 g/ha): 2
Wild oats plant response rating (wild oat; Preemergence, Rate 500 g/ha): 4
Wild oats plant response rating (wild oat; Rate 62 g/ha, Postemergence): 0
Plant response rating, Wild oats (wild oat; [10]): 5
Plant response rating, Soybean (soybean; [8]): 1
Plant response rating, Soybean (soybean; [9]): 0
Soybean plant response rating (0 to 10 scale) (soybean; Preemergence, Rate 125 g/ha): 0
Soybean plant response rating (soybean; Preemergence, Rate 250 g/ha): 0
Soybean plant response rating (soybean; Preemergence, Rate 500 g/ha): 2
Soybean plant response rating (soybean; Rate 62 g/ha, Postemergence): 1
Plant response rating, Soybean (soybean; [10]): 2
Plant response rating, Giant foxtail (giant foxtail; [8]): 7
Plant response rating, Giant foxtail (giant foxtail; [9]): 10
Giant foxtail plant response rating (0 to 10 scale) (giant foxtail; Preemergence, Rate 125 g/ha): 10
Giant foxtail plant response rating (giant foxtail; Preemergence, Rate 250 g/ha): 10
Giant foxtail plant response rating (giant foxtail; Preemergence, Rate 500 g/ha): 10
Giant foxtail plant response rating (giant foxtail; Rate 62 g/ha, Postemergence): 0
Plant response rating, Giant foxtail (giant foxtail; [10]): 9
Plant response rating, Redroot pigweed (pigweed; [8]): 0
Plant response rating, Redroot pigweed (pigweed; [9]): 10
Redroot pigweed plant response rating (0 to 10 scale) (pigweed; Preemergence, Rate 125 g/ha): 10
Redroot pigweed plant response rating (pigweed; Preemergence, Rate 250 g/ha): 10
Redroot pigweed plant response rating (pigweed; Preemergence, Rate 500 g/ha): 10
Redroot pigweed plant response rating (pigweed; Rate 62 g/ha, Postemergence): 0
Plant response rating, Redroot pigweed (pigweed; [10]): 7
